Laboratory results published in BindingDB's records for doi:10.1021/jm000443d (University of California At San Diego, 2001).
pIC50: −log10 of the molar value.

biological target: Protein kinase C alpha type (Homo sapiens, UniProt P17252); experiment: Inhibition of Protein kinase C alpha

Row | pIC50 | SMILES
1 | 8.02 | O=C(N[C@@H]1CS(=O)(=O)CCCC1OC(=O)c1ccc(C(=O)C2C(O)=CC=CC2C(=O)O)c(O)c1)c1ccc(O)cc1 (stereo not given in full)
2 | 8.48 | O=C(N[C@@H]1CSCCCC1OC(=O)c1ccc(C(=O)C2C(O)=CC=CC2C(=O)O)c(O)c1)c1ccc(O)cc1 (stereo not given in full)
3 | 8.17 | O=C(N[C@@H]1COCCCC1OC(=O)c1ccc(C(=O)C2C(O)=CC=CC2C(=O)O)c(O)c1)c1ccc(O)cc1 (stereo not given in full)

Continued, compound first:

Row | SMILES | pIC50
4 | O=C(N[C@@H]1CNCCC[C@H]1OC(=O)c1cc(O)c(C(=O)c2c(O)cccc2C(=O)O)c(O)c1)c1ccc(O)cc1 [Acyclic Balanol Analog (-)-1] | 10.13
5 | O=C(N[C@@H]1CCCCCC1OC(=O)c1ccc(C(=O)C2C(O)=CC=CC2C(=O)O)c(O)c1)c1ccc(O)cc1 (stereo not given in full) | 9.57
